Where two headings read alike, the source gives them in different places.
How the values were obtained:
CYP2C9 = CYP2C9 (Homo sapiens, UniProt P11712); experiment: Enzyme inhibition (in vitro); format: in vitro ADME
[1] = Plasma pharmacokinetics, repeated once-daily administration to healthy adult men; format: in vivo, human; details: first day of administration
[2] = Phase I drug-drug interaction study with sevelamer carbonate; format: in vivo, human; details: for clearance: read-out: Clearance (ClB) (converted); for Vd: read-out: Volume of distribution (Vc); for Tmax: median (minimum, maximum)
Description: A phase I, open-label, fixed-sequence study was conducted in healthy adult subjects to assess the effect of sevelamer carbonate as phosphate binders on the pharmacokinetics of a single dose of vadadustat.
Pharmacokinetics. A predose PK blood sample was collected on Day 1. After each dose of vadadustat administered (Days 1, 3, 5, and 7), blood samples for PK analysis were collected at the following time points: predose and 0.5, 1, 1.5, 2, 3, 4, 6, 9, 12, 16, 24, and 48 hours after each dose of vadadustat. The 48-hour postdose sample was collected before vadadustat administration on Days 3, 5, and 7. The following parameters were calculated and analyzed: AUC0-∞, AUC0-last, Cmax, Tmax, Kel, CIB, Vc/F, and t1/2.
Subjects were dosed approximately at the same designated time on each dosing day, where applicable. Study drugs were administered with approximately 8 ounces (240 mL) of water at room temperature in a seated position. Subjects were instructed to drink the full 8 ounces of water, and not to chew or break the tablets/gelcaps.
A single oral dose of vadadustat 300 mg (2×150 mg tablets) was administered on Days 1, 3, 5, and 7. Phosphate binder that is sevelamer carbonate (1600 mg, 2×800 mg tablets) was administered on Days 3, 5, and 7.
The 9-day treatment period was conducted as follows: • Day 1: vadadustat administered immediately after consuming breakfast. • Day 2: wash-out (no investigational product administration). • Day 3: vadadustat administered concomitantly with the requisite phosphate binder immediately after consuming breakfast. • Day 4: wash-out (no investigational product administration). • Day 5: vadadustat administered in fasted condition and the phosphate binder administered 1 hour later (breakfast must be served within 2 minutes after phosphate binder administration and consumed immediately after it is served). • Day 6: wash-out (no investigational product administration). • Day 7: phosphate binder administered immediately after consuming breakfast; vadadustat administered 2 hours after the phosphate binder was administered. • Day 8: wash-out (no investigational product administration). • Day 9: subjects discharged from the Clinical Research Unit (CRU) after the 48-hour postdose PK blood sample has been collected.

CYP2C8 = molecular target: T1, CYP2C8 (Homo sapiens, UniProt P10632); experiment: Enzyme inhibition (in vitro); format: in vitro ADME
T1 sequence (P10632 1-490): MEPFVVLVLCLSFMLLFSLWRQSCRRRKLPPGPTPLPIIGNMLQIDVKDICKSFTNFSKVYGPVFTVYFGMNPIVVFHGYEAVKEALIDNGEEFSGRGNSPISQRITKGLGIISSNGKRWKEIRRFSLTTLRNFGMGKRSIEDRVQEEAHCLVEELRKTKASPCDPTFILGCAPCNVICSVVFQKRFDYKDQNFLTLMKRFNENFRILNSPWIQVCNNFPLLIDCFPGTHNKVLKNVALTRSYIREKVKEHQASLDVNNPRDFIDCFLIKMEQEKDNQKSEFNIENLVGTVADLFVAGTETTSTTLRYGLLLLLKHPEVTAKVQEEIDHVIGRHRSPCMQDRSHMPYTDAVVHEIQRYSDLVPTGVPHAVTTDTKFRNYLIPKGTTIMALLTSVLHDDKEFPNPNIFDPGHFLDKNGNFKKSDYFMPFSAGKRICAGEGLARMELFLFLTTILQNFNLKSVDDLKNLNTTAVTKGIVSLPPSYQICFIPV

CYP2B6 = molecular target: T2, CYP2B6 (Homo sapiens, UniProt P20813); experiment: Enzyme inhibition (in vitro); format: in vitro ADME
T2 sequence (P20813 1-491): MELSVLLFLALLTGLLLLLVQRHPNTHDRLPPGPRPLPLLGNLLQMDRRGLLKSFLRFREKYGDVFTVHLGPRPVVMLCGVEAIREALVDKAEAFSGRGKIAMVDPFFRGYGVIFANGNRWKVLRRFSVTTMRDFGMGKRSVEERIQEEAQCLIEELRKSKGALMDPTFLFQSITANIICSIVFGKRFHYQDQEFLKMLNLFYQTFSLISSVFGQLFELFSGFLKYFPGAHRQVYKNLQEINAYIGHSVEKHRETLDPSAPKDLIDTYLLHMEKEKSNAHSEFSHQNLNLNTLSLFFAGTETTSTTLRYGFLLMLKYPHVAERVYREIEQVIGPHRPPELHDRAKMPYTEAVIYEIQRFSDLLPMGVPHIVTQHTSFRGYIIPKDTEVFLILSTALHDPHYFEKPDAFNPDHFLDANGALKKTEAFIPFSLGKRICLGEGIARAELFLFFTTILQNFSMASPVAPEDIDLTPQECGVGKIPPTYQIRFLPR

[3] = concomitant administration of phosphate binder vs vadadustat alone, ANOVA
[4] = human, plasma, oral, 300 mg, vadadustat 300 mg alone, immediately after breakfast, mean ± SD
[5] = human, plasma, oral, vadadustat 300 mg 2 hours after sevelamer carbonate 1600 mg with breakfast, mean ± SD
[6] = human, plasma, oral, vadadustat 300 mg concomitantly with sevelamer carbonate 1600 mg, immediately after breakfast, mean ± SD
[7] = human, plasma, oral, vadadustat 300 mg fasting, 1 hour prior to sevelamer carbonate 1600 mg, mean ± SD
[8] = vadadustat 300 mg alone, immediately after breakfast, mean ± SD

Sequence of CYP2C9 (P11712 whole entry): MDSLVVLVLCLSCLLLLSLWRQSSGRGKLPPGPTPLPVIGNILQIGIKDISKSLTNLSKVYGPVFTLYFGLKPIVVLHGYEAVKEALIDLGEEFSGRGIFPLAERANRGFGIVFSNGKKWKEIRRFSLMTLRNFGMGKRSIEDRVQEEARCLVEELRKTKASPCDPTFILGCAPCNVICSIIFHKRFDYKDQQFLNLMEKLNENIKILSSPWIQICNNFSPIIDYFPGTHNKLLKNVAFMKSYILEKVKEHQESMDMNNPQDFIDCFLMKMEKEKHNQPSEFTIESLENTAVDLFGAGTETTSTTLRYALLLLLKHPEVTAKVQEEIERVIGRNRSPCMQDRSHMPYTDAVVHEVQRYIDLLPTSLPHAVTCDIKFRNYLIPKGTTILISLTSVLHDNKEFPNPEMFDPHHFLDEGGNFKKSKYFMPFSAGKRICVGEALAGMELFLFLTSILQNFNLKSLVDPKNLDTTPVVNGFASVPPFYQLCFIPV

inhibitory effect on CYP2C9 (CYP2C9): inhibitory effect
Tmax ([1]; 300 mg once a day): 1.95 h
t1/2 ([1]; 300 mg once a day): 6.14 ± 0.763 h
Tmax ([1]; 600 mg once a day): 1.98 h
reduction of vadadustat AUC0-last [2, 3]: about 37%
reduction of vadadustat AUC0-∞ [2, 3]: about 37%
reduction of vadadustat Cmax [2, 3]: about 40%
AUC(0-t) [2, 4]: 185 ± 57.3 µg·h/mL
AUC(0-inf) ([2]; human, plasma, oral, 300 mg, vadadustat 300 mg alone, immediately after breakfast, mean ± SD, read-out: AUC0-∞): 190 ± 57.2 µg·h/mL
clearance [2, 4]: 28.8 mL/min
Vd [2, 4]: 11.5 ± 2.84 L
Tmax ([2]; human, plasma, oral, 300 mg, vadadustat 300 mg alone, immediately after breakfast): 3.97 h
AUC(0-inf) ([2]; human, plasma, oral, concurrent vadadustat and sevelamer carbonate, read-out: geometric LS mean AUC0-∞): 114 µg·h/mL
AUC(0-t) [2, 5]: 151 ± 57.5 µg·h/mL
AUC(0-inf) ([2]; human, plasma, oral, vadadustat 300 mg 2 hours after sevelamer carbonate 1600 mg with breakfast, mean ± SD, read-out: AUC0-∞): 154 ± 57.8 µg·h/mL
clearance [2, 5]: 38.3 mL/min
half-life ([2]; human, plasma, oral, vadadustat 300 mg 2 hours after sevelamer carbonate 1600 mg with breakfast, mean ± SD, read-out: Elimination half-life (t1/2) (converted)): 306 ± 58.2 min
Vd [2, 5]: 16.4 ± 7.04 L
Tmax ([2]; human, plasma, oral, vadadustat 300 mg 2 hours after sevelamer carbonate 1600 mg with breakfast): 2.99 h
AUC(0-t) [2, 6]: 121 ± 50.4 µg·h/mL
AUC(0-inf) ([2]; human, plasma, oral, vadadustat 300 mg concomitantly with sevelamer carbonate 1600 mg, immediately after breakfast, mean ± SD, read-out: AUC0-∞): 124 ± 51 µg·h/mL
clearance [2, 6]: 48 mL/min
Cmax ([2]; human, plasma, oral, vadadustat 300 mg concomitantly with sevelamer carbonate 1600 mg, immediately after breakfast, mean ± SD, read-out: Cmax): 16600 ± 5750 ng/mL
Vd [2, 6]: 19.4 ± 10.1 L
Tmax ([2]; human, plasma, oral, vadadustat 300 mg concomitantly with sevelamer carbonate 1600 mg, immediately after breakfast): 3.49 h
AUC(0-t) [2, 7]: 152 ± 46.2 µg·h/mL
AUC(0-inf) ([2]; human, plasma, oral, vadadustat 300 mg fasting, 1 hour prior to sevelamer carbonate 1600 mg, mean ± SD, read-out: AUC0-∞): 156 ± 48.5 µg·h/mL
clearance [2, 7]: 35.7 mL/min
Cmax ([2]; human, plasma, oral, vadadustat 300 mg fasting, 1 hour prior to sevelamer carbonate 1600 mg, mean ± SD, read-out: Cmax): 31300 ± 10600 ng/mL
Vd [2, 7]: 13.6 ± 5.04 L
Tmax ([2]; human, plasma, oral, vadadustat 300 mg fasting, 1 hour prior to sevelamer carbonate 1600 mg): 1.49 h
Cmax [2, 8]: 26700 ± 6610 ng/mL
Elimination half-life (t1/2) [2, 8]: 4.81 ± 1.15 h
Elimination half-life (t1/2) ([2]; vadadustat 300 mg concomitantly with sevelamer carbonate 1600 mg, immediately after breakfast, mean ± SD): 4.70 ± 0.90 h
inhibitory effect on CYP2C8 (CYP2C8): inhibitory effect
inhibitory effect on CYP2B6 (CYP2B6): inhibitory effect
SMILES: O=C(O)CNC(=O)c1ncc(-c2cccc(Cl)c2)cc1O [Compound 1, {[5-(3-chlorophenyl)-3-hydroxypyridine-2-carbonyl]amino}acetic acid]
changes in vadadustat exposure ([2]; vadadustat administered 1 hour prior to sevelamer carbonate): within the prespecified no-effect boundaries of 80% to 125%
changes in vadadustat exposure ([2]; vadadustat administered 2 hours after sevelamer carbonate): within the prespecified no-effect boundaries of 80% to 125%

From US20240148707A1, “MODULATION OF DRUG-DRUG INTERACTIONS OF VADADUSTAT” (Akebia Therapeutics, Inc., priority 2021, published 2024)
